Earlier results on two molecules are cited in patent US20230046815A1, “Wound honey with a pump dispenser” (priority 2021, published 2023).

For this data set, the system named is Salmonella sp. As to conditions: single agent.

Each structure is given as a SMILES string.

`OO` [Hydrogen Peroxide]: the “Minimal Bactericidal Concentration” value is 3.12%.

Regarding `O=C(O)CC(O)(CC(=O)O)C(=O)O` [Citric Acid], the “Minimal Bactericidal Concentration” value is on record as 5%.
